# Measured values as given in ChEMBL document CHEMBL5500323, “Plasmodium falciparum topoisomerases: Emerging targets for anti-malarial therapy” (Eur J Med Chem, 2024).
# Experiments:
# [1] = Inhibition of DNA topoisomerase II (unknown origin); design: species or system Homo sapiens
# [2] = Inhibition of recombinant Plasmodium falciparum strain 3D7 Gyrase B expressed in Escherichia coli BL21 (DE3)
# DNA gyrase = DNA gyrase (Escherichia coli, UniProt P0AES4+P0AES6); assay: Inhibition of Escherichia coli DNA gyrase ATPase activity incubated for 80 mins; assay type: protein-complex assay
# [3] = Inhibition of Plasmodium falciparum NF54 Gyrase B
# [4] = Inhibition of Plasmodium falciparum 3D7 Gyrase B
# [5] = Inhibition of C-terminal 6His-tagged Plasmodium falciparum Gyrase B expressed in Escherichia coli
# DNA topoisomerase 2 = target: T1, DNA topoisomerase 2 (Plasmodium falciparum K1, UniProt P41001); assay: Inhibition of Plasmodium falciparum isolate K1 DNA topoisomerase 2
# T1 sequence (P41001 whole entry): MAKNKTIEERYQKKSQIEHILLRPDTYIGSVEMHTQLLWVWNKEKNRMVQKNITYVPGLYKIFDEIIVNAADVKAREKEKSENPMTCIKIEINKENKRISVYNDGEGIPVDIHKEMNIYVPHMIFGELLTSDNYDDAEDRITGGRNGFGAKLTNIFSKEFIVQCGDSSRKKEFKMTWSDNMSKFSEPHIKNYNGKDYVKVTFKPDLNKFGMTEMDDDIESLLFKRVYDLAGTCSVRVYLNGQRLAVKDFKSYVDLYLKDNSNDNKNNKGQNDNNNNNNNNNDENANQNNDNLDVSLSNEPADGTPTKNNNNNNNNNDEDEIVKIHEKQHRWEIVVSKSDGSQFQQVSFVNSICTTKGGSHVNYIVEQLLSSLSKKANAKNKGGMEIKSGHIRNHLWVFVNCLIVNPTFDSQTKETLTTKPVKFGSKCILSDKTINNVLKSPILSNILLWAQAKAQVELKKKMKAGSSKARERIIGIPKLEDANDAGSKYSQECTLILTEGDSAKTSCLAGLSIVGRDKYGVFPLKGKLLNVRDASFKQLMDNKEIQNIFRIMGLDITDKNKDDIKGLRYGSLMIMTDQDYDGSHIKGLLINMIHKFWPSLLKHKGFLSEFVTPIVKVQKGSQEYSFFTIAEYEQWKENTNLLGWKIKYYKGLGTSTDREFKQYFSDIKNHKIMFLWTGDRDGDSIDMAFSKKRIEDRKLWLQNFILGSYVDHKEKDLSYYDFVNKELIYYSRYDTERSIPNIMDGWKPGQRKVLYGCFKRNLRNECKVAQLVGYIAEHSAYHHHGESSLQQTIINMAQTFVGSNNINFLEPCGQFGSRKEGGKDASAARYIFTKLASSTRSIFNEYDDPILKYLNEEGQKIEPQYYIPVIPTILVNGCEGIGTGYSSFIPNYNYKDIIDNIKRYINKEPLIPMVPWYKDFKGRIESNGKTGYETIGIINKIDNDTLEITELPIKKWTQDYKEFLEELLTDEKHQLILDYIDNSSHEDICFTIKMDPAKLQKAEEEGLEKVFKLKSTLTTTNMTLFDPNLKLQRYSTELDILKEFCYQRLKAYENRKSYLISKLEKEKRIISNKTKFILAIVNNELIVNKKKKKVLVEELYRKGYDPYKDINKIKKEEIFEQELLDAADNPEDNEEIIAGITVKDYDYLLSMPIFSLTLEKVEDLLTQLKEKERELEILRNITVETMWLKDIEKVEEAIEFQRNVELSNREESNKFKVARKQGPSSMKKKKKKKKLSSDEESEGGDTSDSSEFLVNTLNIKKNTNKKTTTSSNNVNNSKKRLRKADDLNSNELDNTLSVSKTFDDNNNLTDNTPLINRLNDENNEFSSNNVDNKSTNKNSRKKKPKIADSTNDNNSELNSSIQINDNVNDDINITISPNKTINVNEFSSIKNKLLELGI
# [6] = Inhibition of Plasmodium falciparum DNA topoisomerase VI
compound,measurement,setting,value
COc1ccc2ncc(C#N)c(CCN3CCC(NCc4cc5c(cn4)OCS5)CC3)c2c1,IC50,[1],0.6 µM
CO[C@@H]1[C@@H](OC(=O)c2ccc(C)[nH]2)[C@@H](O)[C@H](Oc2ccc3c(O)c(NC(=O)c4c[nH]c(C(=O)Nc5c(O)c6ccc(O[C@@H]7OC(C)(C)[C@H](OC)[C@@H](OC(=O)c8ccc(C)[nH]8)[C@H]7O)c(C)c6oc5=O)c4C)c(=O)oc3c2C)OC1(C)C,IC50,[2],40 µM
O=C1c2ccccc2C(=O)c2c1cc(S(=O)(=O)O)c(O)c2O [Alizarin Red S],IC50,DNA gyrase,55.6 µM
O=C(O)c1cn(C2CC2)c2cc(N3CCNCC3)c(F)cc2c1=O [CIPROFLOXACIN],IC50,[1],35 µM
NC1CCN(c2c(F)cc3c(=O)c(C(=O)O)cn(C4CC4)c3c2Cl)C1 (configuration not stated) [CLINAFLOXACIN],IC50,[3],3.2 µM
COc1cc([C@@H]2c3cc4c(cc3[C@@H](O[C@@H]3O[C@@H]5CO[C@@H](C)O[C@H]5[C@H](O)[C@H]3O)[C@H]3COC(=O)[C@H]23)OCO4)cc(OC)c1O [ETOPOSIDE],IC50,[1],20 µM
C[n+]1c2cc(N)ccc2cc2ccc(N)cc21 [EUFLAVINE],IC50,[4],1 µM
COc1c(N2CCNC(C)C2)c(F)cc2c(=O)c(C(=O)O)cn(C3CC3)c12 (configuration not stated) [GATIFLOXACIN],IC50,[3],12 µM
CO[C@@H]1[C@@H](OC(N)=O)[C@@H](O)[C@H](Oc2ccc3c(O)c(NC(=O)c4ccc(O)c(CC=C(C)C)c4)c(=O)oc3c2C)OC1(C)C [NOVOBIOCIN],IC50,[5],30 µM
O=c1c(O)cccc2cc(O)c(O)c(O)c12 [PURPUROGALLIN],IC50,DNA gyrase,9.56 µM
COc1ccc2nc3cc(Cl)ccc3c(Nc3cc(CN4CCCC4)c(O)c(CN4CCCC4)c3)c2n1 [PYRONARIDINE],IC50,DNA topoisomerase 2,5.5 µM
C[C@@H]1C[C@H]2O[C@@H]2/C=C\C=C\C(=O)Cc2c(Cl)c(O)cc(O)c2C(=O)O1 [RADICICOL],IC50,[6],80 µM
